Test results reported in BindingDB's records for doi:10.1016/S0960-894X(03)00095-7 (Abbott Laboratories, 2003).
pIC50: −log10 of the molar value.

Experiments:
[1] = target: Protein farnesyltransferase subunit beta/geranylgeranyltransferase type-1 subunit alpha (Bos taurus, UniProt P29702+P49355); assay: FTase Activity Assay; details: pH 7.5; 37 °C
Description: The in vitro activity of compounds inhibiting FTase was determined by measuring the transfer of [3H]-FPP to substrate Ha-Ras-CVLS. The incorporated radioactivity was quantified by scintillation counting.

[2] = target: Geranylgeranyl transferase type-1 subunit beta/Protein farnesyltransferase/geranylgeranyltransferase type-1 subunit alpha (Bos taurus, UniProt P29702+Q5EAD5); assay: GGTase-I Activity Assay; details: pH 7.5; 37 °C
Description: The in vitro activity of compounds inhibiting GGTase-1 was determined by measuring the transfer of [3H]-geranylgeranylpyrophosphate to substrate Ha-Ras-CVLL. The incorporated radioactivity was quantified by scintillation counting.

- pIC50 [1]: 9.04
- pIC50 [2]: 5.80
Compound: CN(Cc1ccc(C#N)cc1)[C@H](Cc1cncn1C)C(=O)N1CCC(C#N)=C(c2cccc3ccccc23)C1 [1-[(2R)-2-{[(4-cyanophenyl)methyl](methyl)amino}-3-(1-methyl-1H-imidazol-5-yl)propanoyl]-5-(naphthalen-1-yl)-1,2,3,6-tetrahydropyridine-4-carbonitrile]
